According to patent US20160333019A1, “SYNTHESIS AND FORMULATIONS OF PORPHYRIN COMPOUNDS” (Aeolus Sciences, Inc., priority 2013, published 2016):

Key:
Assay type in all cases: physicochemical
[1] = Study 4: 75 mg/mL Formula (VI) in WFI at pH 7.0 under ICH storage temperatures; conditions: after 1 month
Method: About 10 g of WFI was placed in the container including a stir bar. […] The pH was measured and the solution was mixed at room temperature for 16-24 hours. At the end of the 16-24 hour hold/mix, the pH of solution was adjusted to pH 7.0 with either HCl or NaOH and mixed for about 15 minutes. The solution was filtered through a PVDF, 0.22 μm filter by discarding about 1 mL prior to placing about 4-5 mL into each of four separate clean containers (A, B, C, D). The pH of the samples was then measured. Solution A was stored at 2-8° C., solution B at 25° C., solution C at 30° C. and solution D at 40° C. […]

[2] = Study 2: 75 mg/mL Formula (VI) in WFI at pH 7.0, 14 days at 60° C.
Method: The samples were filled in glass vials and capped with an air headspace. All samples were tested and evaluated for physicochemical stability under the storage conditions at 2-8 and 60° C. after 0, 3, 7 and 14 days.
About 10 g of WFI was placed in the container including a stir bar.
The pH was measured at approximately hourly intervals and at about 16 hours and 24 hours. At the end of the 16-24 hour hold/mix, the pH of the solution was adjusted to pH 7.0 with either HCl or NaOH and mixed for approximately 15 minutes. The solution was filtered through a PVDF, 0.22 μm filter into a clean container and its pH measured.
The pH was measured at 30 minutes then hourly thereafter for the 16-24 hour time period. Once the solution pH and osmolality stabilized, the air sparging was stopped. The solution was adjusted to pH 7.0 with either HCl or NaOH and mixed for about 15 minutes. The solution was filtered through a PVDF, 0.22 μm filter into clean container and the pH measured.
Both samples were then stored at 60° C. and samples taken at 0, 3, 7 and 14 days from both containers and to measure pH. […]

[3] = Study 5: 75 mg/mL Formula (VI) in WFI at various pH under ICH storage temperatures; conditions: for pH change: 75 mg/mL at pH 6
Method: It was noticeable from Study 2 that drug stability was dependent on the pH. The lower the pH, the greater the chemical stability. […] An accelerated 60° C. storage temperature was also accessed in order to compare and generate a pH-stability profile of drug in water.
(§1) About 10 g of WFI was placed in the container including a stir bar. […] The pH was measured and the solution was mixed at room temperature for 16-24 hours. At the end of the 16-24 hour hold/mix, the pH of solution was adjusted to pH 4.0 with either HCl or NaOH and mixed for about 15 minutes. The solution was filtered through a PVDF, 0.22 μm filter by discarding about 1 mL prior to placing about 4-5 mL into each of four separate clean containers (A, B, C, D). The pH of the samples was then measured. Solution A was stored at 2-8° C., solution B at 25° C., solution C at 30° C. and solution D at 40° C. A sample was removed from each container after 3, 7 and 14 days the pH measured.
as §1, with “5.0” for “4.0”
as §1, with “6.0” for “4.0”

[4] = 75 mg/mL, 60° C. for 14 days, within pH profile range 4.1-6.5

## [5,10,15,20-tetrakis(1,3-diethylimidazolium-2-yl)porphyrinato]manganese(III) chloride hydrate complex [Formula (VI)]
[1]; 75 mg/mL in water pH 7, each storage condition
  chemical stability: No significant change
[1]; 75 mg/mL pH 7, 25° C.
  pH decrease: approximately 0.3 pH units
[1]; 75 mg/mL pH 7, 30° C.
  pH decrease: ~0.5 pH units
[1]; 75 mg/mL pH 7, 40° C.
  pH decrease: ~1.1 pH units
[1]; 75 mg/mL pH 7, all samples
  osmolality: 270-276 mOsm/kg
[1]; 75 mg/mL pH 7, refrigerated sample
  pH change: ≤ 0.1 pH unit
[2]; 75 mg/mL in WFI, 2-8 and 60° C., 0, 3, 7 and 14 days
  dependence of drug stability on pH: The lower the pH, the greater the drug stability
[2]; 75 mg/mL in water at pH 7.0, 60° C., after 14 days
  pH decrease: 1-2 pH units
[2]; 75 mg/mL in water at pH 7.0, refrigerated condition
  pH stability: relatively stable
[2]; 75 mg/mL in water pH 7, 60° C.
  chemical stability, air sparged versus non-sparged sample: better stability
[2]; 75 mg/mL in water pH 7, all samples stored at 60° C., after 14 days
  degradation lower than that from the control sample: 3-6%
[3]; 75 mg/mL at pH 4 and 5, all storage conditions, after 14 days
  pH variation: ≤ 0.1 pH unit
[3]; 75 mg/mL at pH 5, 60° C., after 14 days
  pH decrease: ~0.2 pH units
[3]; 2-8° C., after 14 days
  pH change: 0.7 pH units
[3]; 25° C., after 14 days
  pH change: 0.5 pH units
[3]; 40° C., after 14 days
  pH change: −0.1 pH units
[3]; 60° C., after 14 days
  pH change: −0.9 pH units
[3]; 75 mg/mL in water, samples at pH between 4.1 and 6.8, after 14 days
  change of purity assays: No significant changes
[3]; 75 mg/mL, 60° C. for 14 days, increase of pH between 4.1 and 6.5
  decrease in drug purity assay: ~5%
[3]; [4]
  increase of degradant at RRT 1.56-1.62: ~8 folds
  level of degradant at RRT 1.56-1.62: 0.4-3.2%
[3]; 60° C. samples, between pH 4.1 and 5.2
  decrease of purity assay: ~3%
[3]; pH 4 sample, 60° C. storage
  osmolality: 292 mOsm/kg
[3]; pH 4 samples, 2-8, 25 and 40° C., after 14 days
  osmolality: 277-280 mOsm/kg
[3]; pH 5 sample, 60° C. storage
  osmolality: 302 mOsm/kg
[3]; pH 5 samples, 2-8, 25 and 40° C., after 14 days
  osmolality: 273-275 mOsm/kg
[3]; pH 6 sample, 60° C. storage
  osmolality: 283 mOsm/kg
[3]; pH 6 samples, 2-8, 25 and 40° C., after 14 days
  osmolality: 269-272 mOsm/kg
